Measured values taken from patent US20050031679A1, “Method for producing liposomal formulations of active ingredients” (priority 1998, published 2005).

Assay: Efficiency of inclusion of active ingredient added subsequently to a finished liposome gel
Type: physicochemical
Description: This object is achieved by a method for producing liposomes which comprise as active ingredient at least one physiologically active or/and diagnostic compound, by production of a mixture of membrane-forming amphiphiles, dispersion of the mixture in water and high pressure homogenization of the dispersion until the liposomes are formed, which comprises • (a) adding the active ingredient to any liposome preparation, preferably a liposome gel, which contains at least 20% by weight lipid, and • (b) incubating the active ingredient-containing mixture, where appropriate with mechanical agitation, until • (i) hydrophilic active ingredients are distributed in the liposomes and between the liposomes in accordance with the proportions by volume of aqueous medium inside and outside the liposomes in the preparation (equilibrium state) or • (ii) lipophilic compounds are incorporated in the lipid bilayer, or • (iii) amphiphilic compounds have surmounted the lipid bilayer and are incorporated or associated in the outer regions of the lipid bilayer.
A liposome gel which contains the cytostatic gemcitabine as active component cannot be autoclaved because this antitumor agent promotes the hydrolysis of the phospholipids, leading to complete phospholipid degradation under standard conditions during autoclaving. […]

efficiency of inclusion (added as solid substance to the liposome gel, incubated with shaking at 50° C. for 3 hours) [%] | efficiency of inclusion (autoclaved liposome gel mixed with concentrated buffered gemcitabine solution, incubation at 60° C. for four hours (equilibrium)) | Compound
95 |  | C[C@@H]1[C@H](O)[C@@H](C)/C=C/C=C/C=C/C=C/C=C/C=C/C=C/[C@H](O[C@@H]2O[C@H](C)[C@@H](O)[C@H](N)[C@@H]2O)C[C@@H]2O[C@](O)(C[C@@H](O)C[C@@H](O)[C@H](O)CC[C@@H](O)C[C@@H](O)CC(=O)O[C@H]1C)C[C@H](O)[C@H]2C(=O)O [amphotericin B]
 | more than 30% | Nc1ccn([C@@H]2O[C@H](CO)[C@@H](O)C2(F)F)c(=O)n1 [gemcitabine]
